How the values were obtained:
Assay type in all cases: cell-based, human
FGF2 = assay: beta gal target cleavage assay, FGF2; conditions: pcDNA6/LacZ/FGF2; data not shown
Method: (§1) Target cleavage assays using the miRNA targets from the bioinformatics analyses above were conducted. The 3′ UTR seed sequences of putative target genes were amplified by PCR (Phusion PCR kit, Finnzymes) from human Melanocyte genomic DNA (Primers: ARL2 For-ctcctccaccccagcctgc (SEQ ID NO 92), ARL2 Rev-[…] (SEQ ID NO 93); FGF2 For-[…] (SEQ ID NO 94), FGF2 Rev-[…] (SEQ ID NO 95); RAB22A For-[…] (SEQ ID NO 96), RAB22A Rev-[…] (SEQ ID NO 97); SLC37A3 For-[…] (SEQ ID NO 98), SLC37A3 Rev-[…] (SEQ ID NO 99); TCF12 For-[…] (SEQ ID NO 100), TCF12 Rev-[…] ((SEQ ID NO 101); all primer sets containing 5′ NotI and 3′ AgeI sites). PCR products were cloned into pCR4-TOPO (Invitrogen), confirmed by sequencing, then subcloned into the 3′ UTR of the LacZ gene in pcDNA6/V5-His/LacZ (Invitrogen) using the 5′ NotI and 3′ AgeI restriction sites, and reconfirmed by sequencing (pcDNA6/LacZ/ARL2, pcDNA6/LacZ/FGF2, pcDNA6/LacZ/RAB22A, pcDNA6/LacZ/SLC37A3, and pcDNA6/LacZ/TCF12, respectively). FIG. 11 is an example of the pcDNA6/LacZ construct used within these experiments. As shown, the FGF2 target sequence may be cloned into the 3′ UTR of the LacZ gene. […]

RAB22A = assay: beta gal target cleavage assay, RAB22A; conditions: A375 cells, mimic co-transfected at 100 nM
Method: as §1

SLC37A3 = assay: beta gal target cleavage assay, SLC37A3; conditions: A375 cells, mimic co-transfected at 100 nM
Method: as §1

TCF12 = assay: beta gal target cleavage assay, TCF12; conditions: A375 cells, mimic co-transfected at 100 nM; Kruskal Wallis p-value<0.001
Method: Target cleavage assays using the miRNA targets from the bioinformatics analyses above were conducted. The 3' UTR seed sequences of putative target genes were amplified by PCR (Phusion PCR kit, Finnzymes) from human Melanocyte genomic DNA (Primers: ARL2 For-[NT] (SEQ ID NO 92), ARL2 Rev-[NT] (SEQ ID NO 93); FGF2 For-[NT] (SEQ ID NO 94), FGF2 Rev-[NT] (SEQ ID NO 95); RAB22A For-[NT] (SEQ ID NO 96), RAB22A Rev-[NT] (SEQ ID NO 97); SLC37A3 For-[NT] (SEQ ID NO 98), SLC37A3 Rev-[NT] (SEQ ID NO 99); TCF12 For-[NT] (SEQ ID NO 100), TCF12 Rev-[NT] ((SEQ ID NO 101); all primer sets containing [NT] AgeI sites). PCR products were cloned into pCR4-TOPO (Invitrogen), confirmed by sequencing, then subcloned into the 3' UTR of the LacZ gene in pcDNA6/[…]/LacZ (Invitrogen) using the [NT] AgeI restriction sites, and reconfirmed by sequencing (pcDNA6/LacZ/ARL2, pcDNA6/LacZ/FGF2, pcDNA6/LacZ/RAB22A, pcDNA6/LacZ/SLC37A3, and pcDNA6/LacZ/TCF12, respectively). FIG. 11 is an example of the pcDNA6/LacZ construct used within these experiments. As shown, the FGF2 target sequence may be cloned into the 3' UTR of the LacZ gene. A375 Melanoma cell lines were transfected in triplicate (Fugene 6, Roche) with 5 μg plasmid DNA of: […] Negative control sequence is based on cel-miR-67, mature sequence: […] been confirmed to have minimal sequence identity with miRNAs in human, mouse and rat or E) no mimic. […]

KCNMA1 = assay: beta gal target cleavage assay, KCNMA1

| Substance | targeting of FGF2 (target cleavage assay) (FGF2) | beta-galactosidase activity, RAB22A target construct (RAB22A) | beta-galactosidase activity, SLC37A3 target construct (SLC37A3) | beta-galactosidase activity, TCF-12 target construct (TCF12) | target binding in KCNMA1 (beta gal target cleavage assay) (KCNMA1) |
| --- | --- | --- | --- | --- | --- |
| miR-16: miRIDIAN microRNA Mimic (Dharmacon) for miR-16, UAGCAGCACGUAAAUAUUGGCG (commercial miRIDIAN mimic, chemistry not given here; listed as Homo sapiens) | confirmed | – | – | – | – |
| miR-211: miRIDIAN microRNA Mimic (Dharmacon) for miR-211, UUCCCUUUGUCAUCCUUCGCCU (commercial miRIDIAN mimic, chemistry not given here; listed as Homo sapiens) | – | decreased | decreased | statistically significant reduction in fold change | confirmed |
